Test results published in patent publication US8962646B2, “Peripherally acting opioid compounds” (Alkermes, Inc., priority 2011, dated 2015).
Entries after “also recorded” stand apart in the source; their conditions may differ. Where a name gives a salt, the structure may show the parent alone. Read-outs that look alike come from different tables or passages of the source.

Tests used:
formalin-induced events = test: Formalin model of pain; assay type: in vivo; settings: rats; for ED50: Rattus norvegicus, sc, read-out: Formalin test ED50
Protocol: Nonfasted male Harlan rats were assigned to treatment group according to a randomized block study design to balance for test chamber and time of day, and day of test (if applicable). Each rat was administered either vehicle or test compound subcutaneously and then placed in their assigned test chamber and acclimated for 25-30 minutes with the chamber enclosure door left open. Data was not collected during this period. Following the acclimation period, each rat was removed individually starting with chamber 1, and dosed 5% formalin subcutaneously into the right rear paw plantar surface (formalin was made from a 37% stock solution, diluted down to 5% with saline).
Data collection started when the first rat was replaced in chamber 1 and the chamber door was closed and latched (skipped 1-minute acclimation screen on software). The number of events (also defined as “number of seconds”), defined as the number of 1-second bins with a change in dynamic force that exceeded an empirically determined threshold value (a value of arbitrary load units, which corresponded visually with rats quietly breathing or sniffing), were totaled in 5-minute intervals. In control rats, the number of events first increases within 5 minutes and then decreases during the subsequent 5 minutes (a quiescent phase) after formalin administration (Phase I, or Early Phase, of the formalin test), then increases again during the subsequent 35 minutes (Phase II, or Late Phase) of the formalin test. Formalin-induced movements detected by the system include licking and flinching of the affected paw as well as hopping and turning.
For constructing summaries for analysis of dose response curves or screens in the formalin test, the total number of events during the first 5 minutes after formalin administration was considered to be Phase I (Early Phase), and the total number of events for minutes 11 to 35 after formalin was considered to be Phase II (Late Phase). Data were analyzed using 1-way ANOVA, and comparisons of drug treatment groups were compared with control groups using appropriate, statistician-guided tests—most commonly Dunnett's for dose response curves and a Student's t-test for two-group (i.e. vehicle vs. positive control) comparison—utilizing JMP statistical software (SAS Institute Inc, Cary, N.C.). Data was expressed as means±SEM. An ED50 was calculated utilizing GraphPad Prism software.

[1] = tested on: hot plate response latency; test: Rat hot plate model of centrally mediated analgesia
Protocol: Rats were then tested on the hot plate 5, 30, 60, 120, 240 and 360 minutes later. The amount of time it took to lick one hind paw is measured and is considered the response latency. The mean and SEM of the responses latencies for each experimental group were calculated and a line depicting mean hot plate latency vs. time was generated using GraphPad Prism. An increase in mean response latency above baseline following test compound administration is indicative of an antinociceptive effect.

[2] = tested on: CFA-induced weight bearing deficits; test: CFA induced weight bearing deficits in rats; settings: for Analgesic effect with concurrent intra-plantar 75 ug naloxone methiodide: 10 μg/paw intra-plantar; for Reversal of CFA-induced weight bearing deficits: intra-plantar, 3, 10 and 30 μg/paw
Protocol: Animals were habituated to the weight bearing test apparatus for 2 days prior to the start of the experiment. On Day 0, rats were tested in the weight bearing apparatus to measure baseline weight bearing of untreated hind paws. Following baseline testing, animals were injected intra-plantar with Complete Freund's Adjuvant (CFA). Using a syringe with a locking hub and 25 G needle, rats were injected via rear, left intra-plantar administration with 100 μL of 100% CFA (1.0 mg/ml) while under light isofluorane anesthesia. No treatment was administered to the right, rear, contralateral paw.
Intra-plantar test-compound administration was done while the animal was under light (3%) isofluorane anesthesia using 0.3 ml insulin syringe. The amount of anesthesia given to the animal during test compound administration was limited to a very short duration, so not to impede measurement of weight bearing at the 5 minute time point. On Day 1 (24 hrs post CFA), rats were tested in the weight bearing apparatus to measure CFA-induced changes in weight bearing. […] Following test compound administration, animals were retested in the weight bearing apparatus at the following time points: 5, 15, 30, 60 and 120 minutes post-test compound administration. Animals were retested on Day 2 (post-CFA) if there is a significant change in CFA induced weight bearing at the 120 minute time point on Day 1.

mice = test: In vivo behavioral studies (clinical observation assay); settings: 10 mg/kg SC, observed over 24 hours
Protocol: Groups of mice (n=5 per group; >60 days; 20-25 grams weight) were dosed with vehicle (0.9% sterile saline) or test compounds (10 mg/kg free base, SC) 30 minutes before the first observation period. The occurrence of Straub tail, piloerection, hyperlocomotion, hypolocomotion, circling of the cage, sedation, breathing abnormalities, diuresis, seizure activity and occurrences of death were recorded at 0.5, 1, 2, 4, 6 and 24 hours following dosing.
This is tested with our clinical observation assay where mice are injected with 10 mg/kg subcutaneously with drug and the behaviors are noted over 24 hours.

human δ opioid receptor = human δ opioid receptor (Homo sapiens (Human), UniProt P41143); test: Receptor binding, competitive displacement of [3H]naltrindole; settings: CHO cell membranes, cloned human receptor, 0.2 nM [3H]naltrindole
human κ opioid receptor = human κ opioid receptor (Homo sapiens (Human), UniProt P41145); settings: read-out: Binding affinity κ (Ki, nm)
human μ opioid receptor [3] = target: T1, human μ opioid receptor (Homo sapiens (Human), UniProt P35372); assay type: biochemical
Protocol: The [^35S]GTPγS assay measures the functional properties of a compound by quantifying the level of G-protein activation following agonist binding in studies using stably transfected cells, and is considered to be a measure of the efficacy of a compound. Membranes from CHO (Chinese Hamster Ovary) cells that stably expressed the cloned human Mu opioid receptor were used in the experiments. In a final volume of 0.5 mL, 12 different concentrations of each test compound were incubated with 7.5 μg of CHO cell membranes that stably expressed the human μ opioid receptor. The assay buffer consisted of 50 mM Tris-HCl, pH 7.4, 3 mM MgCl2, 0.2 mM EGTA, 3 μM GDP, and 100 mM NaCl. The final concentration of [^35S]GTPγS was 0.080 nM. Nonspecific binding was measured by inclusion of 10 μM GTPγS. Binding was initiated by the addition of the membranes. After an incubation of 60 min at 30° C., the samples were filtered through Schleicher & Schuell No. 32 glass fiber filters. The filters were washed three times with cold 50 mM Tris-HCl, pH 7.5, and were counted in 2 mL of Ecoscint scintillation fluid.

human μ opioid receptor [4] = target: T1, human μ opioid receptor; settings: read-out: Binding affinity μ (Ki, nm)
[5] = tested on: acetic acid induced writhing; test: Acetic-acid induced writhing model of inflammatory pain; assay type: in vivo; settings: mice, intraperitoneal, 1% acetic acid
Protocol: The number of writhes was counted for 15 minutes (3 consecutive 5 minute time bins). […] “Normal” posture was defined as movements opposite to those listed above (e.g. convex curvature of the spine, legs not extended, abdomen not lowered, tail in a straight or relaxed position, etc).
The total number of writhes over the 15 minute test session was used for all data analysis. All data was transformed using GraphPad Prism to % change from daily vehicle control for analysis based on the number of writhes produced by the saline vehicle control group (% change=# writhes in test group/mean # of writhes in daily vehicle control group*100).

[6] = read-out: Binding affinity δ (Ki, nm)
[7] = CHO cell membranes, cloned human receptor, 1 nM [3H]U69,593
[8] = [35S]GTPγS binding, CHO membranes
[9] = CHO cell membranes, cloned human receptor, […] [3H]DAMGO
[10] = uM, read-out: Binding affinity δ (Ki)

| Molecule | Clinical Observations after 10 mg/kg subcutaneous injection (mice) | Ki (human δ opioid receptor; [6]) [µM] | Ki (human κ opioid receptor; [7]) [nM] | In vitro functional agonism for μ receptor Agonist? (human μ opioid receptor [3]; [8]) | Ki (human μ opioid receptor [4]; [9]) [nM] | also measured |
| --- | --- | --- | --- | --- | --- | --- |
| CN1CC[C@]23c4c5ccc(O)c4O[C@H]2[C@@H](O)C=CC3C1C5 (stereo partly shown) [A, morphine, reference compound] | Multiple central nervous system like effects: Straub tail, hyperlocomotion, circling |  |  |  |  | ED50 (formalin-induced events; subcutaneous): 2.4 mg/kg; Effect on early and late phase of formalin test (formalin-induced events; 10 mg/kg): completely mitigates both the early and late phase effects of formalin; Hot plate antinociception (response latency) ([1]; SC 7.5 mg/kg, hot plate 52.5° C.): 60 s; Analgesic effect with concurrent intra-plantar 75 ug naloxone methiodide [2]: significantly inhibited; Reversal of CFA-induced weight bearing deficits [2]: dose-dependent reversal of CFA-induced weight bearing deficits; Clinical Observations after 10 mg/kg subcutaneous injection (mice; listed as morphine): severe effects that reflect mu agonism in the brain |
| CN1CC[C@]23CC(=O)CC[C@@]2(O)[C@H]1Cc1ccc(C(=O)NCCc2ccc(-c4ccccc4)cc2)c(O)c13.Cl [B, reference compound] | Angioedema; Straub tail, hypolocomotion, mortality | 0.0054 | 0.71 |  |  | In vitro functional agonism for μ receptor Agonist? (human μ opioid receptor [3]): Yes; Ki (human μ opioid receptor [4]): 0.39 nM; Clinical Observations after 10 mg/kg subcutaneous injection (mice; listed as Compound-B): severe effects that reflect mu agonism in the brain; also recorded: observed mortality |
| CN1CC[C@]23CC(=O)CC[C@@]2(O)[C@H]1Cc1ccc(C(=O)NCCc2nc4ccccc4[nH]2)c(O)c13 [Compound 1] | None | 0.49 | 850 |  |  | In vitro functional agonism for μ receptor Agonist? (human μ opioid receptor [3]): Yes; Ki (human μ opioid receptor [4]): 27 nM |
| O=C1CC[C@@]2(O)[C@H]3Cc4ccc(C(=O)NCCc5ccc(-c6c[nH]c(=O)[nH]c6=O)cc5)c(O)c4[C@@]2(CCN3CCc2ccccc2)C1 [Compound 2, N-{2-[4-(2,4-Dioxo-1,2,3,4-tetrahydropyrimidin-5-yl)phenyl]ethyl}-4,14-dihydroxy-6-oxo-17-(2-phenylethyl)morphinan-3-carboxamide] | None |  |  | Yes |  |  |
| CN1CC[C@]23CC(=O)CC[C@@]2(O)[C@H]1Cc1ccc(C(=O)NCCc2ccc(-c4ccc(=O)[nH]c4)cc2)c(O)c13 [Compound 3] | None | 0.017 | 180 | Yes | 0.63 |  |
| CN1CC[C@]23CC(=O)CC[C@@]2(O)[C@H]1Cc1ccc(C(=O)NCCc2ccc(-c4cnc(O)nc4O)cc2)c(O)c13 [Compound 4] | None |  |  | Yes | 1.3 | ED50 (formalin-induced events; subcutaneous): 3.62 mg/kg; Early Phase versus Late Phase effect in formalin test (formalin-induced events; subcutaneous): more robust effect of Compound 4 in the Late Phase effects than the Early Phase; Effect on formalin-induced events (formalin-induced events; subcutaneous, dose response): dose-dependent reversal of formalin-induced events; Hot plate efficacy at the highest dose tested ([1]; SC 100 mg/kg): sub-maximal efficacy; Hot plate activity compared with morphine ([1]; SC 10, 30 and 100 mg/kg): significantly less active than morphine; Ki (human δ opioid receptor; [10]): > 1 µM; ED50 ([5]; Mus musculus, ip): 0.7 mg/kg; Effect on acetic acid induced writhing [5]: blocked acetic acid induced writhing in a dose-dependent manner; Analgesic effect with concurrent intra-plantar 75 ug naloxone methiodide [2]: significantly inhibited; Reversal of CFA-induced weight bearing deficits [2]: dose-dependent reversal of CFA-induced weight bearing deficits; also recorded: comparable to that seen with Morphine; Ki (human κ opioid receptor): 190 nM |
| C=C1CC[C@@]2(O)[C@H]3Cc4ccc(C(=O)NCCc5ccc(-c6c[nH]c(=O)[nH]c6=O)cc5)c(O)c4[C@@]2(CCN3C)C1 [Compound 6] | None | 0.097 | 1000 | Yes | 3.5 |  |
| CO[C@@]12CCC(=O)C[C@@]13CCN(C)[C@@H]2Cc1ccc(C(=O)NCCc2ccc(-c4c[nH]c(=O)[nH]c4=O)cc2)c(O)c13 [Compound 7] | None | 0.042 | 860 |  |  | In vitro functional agonism for μ receptor Agonist? (human μ opioid receptor [3]): Yes; Ki (human μ opioid receptor [4]): 0.52 nM |
| CN1CC[C@]23CC(=O)CC[C@@]2(O)[C@H]1Cc1ccc(C(=O)NCCc2ccc(-c4cn[nH]c4)cc2)c(O)c13 [Compound 8] | None | 0.0021 | 19 | Yes | 0.15 |  |
| CN1CC[C@]23CC(=O)CCC2[C@H]1Cc1ccc(C(=O)NCCc2nc4ccccc4[nH]2)c(O)c13 (stereo partly shown) [Compound 9] | None | 0.28 | 400 | Yes | 1.7 |  |
| CN1CC[C@]23CC(=O)CC[C@@]2(O)[C@H]1Cc1ccc(C(=O)NCCc2ccc(-c4cc[nH]c(=O)c4)cc2)c(O)c13 [Compound 10, 4,14-dihydroxy-N-{2-[4-(2-hydroxypyridin-4-yl)phenyl]ethyl}-17-methyl-6-oxomorphinan-3-carboxamide] | None | 0.01 |  | Yes | 0.43 | Ki (human κ opioid receptor): 140 nM |
| CN1CC[C@]23CC(=O)CC[C@@]2(O)[C@H]1Cc1ccc(C(=O)NCCc2ccc(-c4cnc(=O)[nH]c4)cc2)c(O)c13 [Compound 11, 4,14-dihydroxy-17-methyl-6-oxo-N-{2-[4-(2-oxo-1,2-dihydropyrimidin-5-yl)phenyl]ethyl}morphinan-3-carboxamide maleate salt] | None |  |  | Yes | 1.6 | Ki (human δ opioid receptor; [10]): > 1 µM |
| (4bS,9R)—N-(4-(2,4-dioxo-1,2,3,4-tetrahydropyrimidin-5-yl)phenethyl)-4-hydroxy-11-methyl-6-oxo-6,7,8,8a,9,10-hexahydro-5H-9,4b-(epiminoethano)phenanthrene-3-carboxamide [Compound 5] | None | 0.051 |  | Yes | 1.7 | Ki (human κ opioid receptor): 680 nM |
